From patent US8592426B2, “Aryl-benzocycloalkyl amide derivatives” (Hoffmann—La Roche Inc., priority 2011, dated 2013)

Columns and labels:
Bradykinin-1 receptor [1] = molecular target: T1, Bradykinin-1 receptor (Homo sapiens (Human), UniProt P46663); test: Calcium mobilization assay (FLIPR, Fluo-4) in GeneBLAzer Bradykinin (B1)-NFAT-bla CHO-K1 cells; assay type: cell-based; details: antagonist activity; CHO-K1 cells stably overexpressing the human bradykinin 1 receptor; read-out: Ca mobilization Assay IC50
T1 sequence (P46663 whole entry): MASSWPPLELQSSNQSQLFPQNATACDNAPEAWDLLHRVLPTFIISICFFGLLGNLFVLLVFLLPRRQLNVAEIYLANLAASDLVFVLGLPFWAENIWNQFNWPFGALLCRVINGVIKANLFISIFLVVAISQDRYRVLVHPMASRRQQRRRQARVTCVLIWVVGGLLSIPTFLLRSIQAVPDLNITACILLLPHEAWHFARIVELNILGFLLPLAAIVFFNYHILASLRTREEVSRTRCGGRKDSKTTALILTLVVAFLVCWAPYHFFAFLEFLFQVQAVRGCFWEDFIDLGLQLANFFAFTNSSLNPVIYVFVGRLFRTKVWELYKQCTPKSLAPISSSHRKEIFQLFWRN

Bradykinin-1 receptor [2] = molecular target: T1, Bradykinin-1 receptor; test: Receptor binding assay (B1R Binding Assay), [3H]-Kallidin (Des Arg10, Leu9) displacement; details: membranes from CHO-K1 cells overexpressing Bradykinin-1 receptor; 6 nM radioligand
Description: Binding assays were done with membranes from CHO-K1 cells overexpressing Bradykinin-1 receptor.
To determine non-specific binding 10 μM Lys-(Des-Arg^9)-Bradykinin (Bachem) was added. Membranes were harvested through GF/B (glass fiber filter; PerkinElmer) plates, equilibrated with 0.5% polyethylenimine, air dried at 50° C. for 2 h. Radioactivity was determined by counting in a topcounter (NXT Packard).

| SMILES | IC50 (Bradykinin-1 receptor [1]) [nM] | Ki (Bradykinin-1 receptor [2]) [nM] |
| --- | --- | --- |
| Cc1nc(-c2c(F)cc(Cl)cc2-c2ccc3c(c2)CC[C@@H]3NC(=O)C2(NC(=O)c3cncnc3)CC2)no1 [Example 25, Pyrimidine-5-carboxylic acid(1-{(S)-5-[5-chloro-3-fluoro-2-(5-methyl-[1,2,4]oxadiazol-3-yl)-phenyl]-indan-1-ylcarbamoyl}-cyclopropyl)-amide] | 0.1 | 3.1 |
| COc1ncc(C(=O)NC2(C(=O)N[C@H]3CCc4cc(-c5cc(Cl)cc(F)c5-c5noc(C)n5)ccc43)CC2)cn1 [Example 26, 2-Methoxy-pyrimidine-5-carboxylic acid(1-{(S)-5-[5-chloro-3-fluoro-2-(5-methyl-[1,2,4]oxadiazol-3-yl)-phenyl]-indan-1-ylcarbamoyl}-cyclopropyl)-amide] | 0.2 | 2.6 |
| Cc1nc(-c2c(F)cc(Cl)cc2-c2ccc3c(c2)CC[C@@H]3NC(=O)C2(NC(=O)c3ccnnc3)CC2)no1 [Example 27, Pyridazine-4-carboxylic acid(1-{(S)-5-[5-chloro-3-fluoro-2-(5-methyl-[1,2,4]oxadiazol-3-yl)-phenyl]-indan-1-ylcarbamoyl}-cyclopropyl)-amide] | 0.4 | 3.6 |
| Cc1nc(-c2c(F)cc(Cl)cc2-c2ccc3c(c2)CC[C@@H]3NC(=O)C2(NC(=O)c3ccno3)CC2)no1 [Example 28, Isoxazole-5-carboxylic acid(1-{(S)-5-[5-chloro-3-fluoro-2-(5-methyl-[1,2,4]oxadiazol-3-yl)-phenyl]-indan-1-ylcarbamoyl}-cyclopropyl)-amide] | 0.3 | 4.1 |
| COc1cc(C(=O)NC2(C(=O)N[C@H]3CCc4cc(-c5cc(Cl)cc(F)c5-c5noc(C)n5)ccc43)CC2)on1 [Example 30, 3-Methoxy-isoxazole-5-carboxylic acid(1-{(S)-5-[5-chloro-3-fluoro-2-(5-methyl-[1,2,4]oxadiazol-3-yl)-phenyl]-indan-1-ylcarbamoyl}-cyclopropyl)-amide] | 0.1 | 3.9 |

Second part, the compound after the results:

| IC50 (Bradykinin-1 receptor [1]) [nM] | Ki (Bradykinin-1 receptor [2]) [nM] | SMILES |
| --- | --- | --- |
| 0.4 | 4.8 | Cc1nc(-c2c(F)cc(Cl)cc2-c2ccc3c(c2)CC[C@@H]3NC(=O)C2(NC(=O)c3cncnc3)COC2)no1 [Example 50, Pyrimidine-5-carboxylic acid (3-{(S)-5-[5-chloro-3-fluoro-2-(5-methyl-[1,2,4]oxadiazol-3-yl)-phenyl]-indan-1-ylcarbamoyl}-oxetan-3-yl)-amide] |
| 2.7 | 11.8 | Cc1nc(-c2c(F)cc(Cl)cc2-c2ccc3c(c2)CC[C@@H]3NC(=O)C2(NC(=O)c3ccno3)COC2)no1 [Example 51, Isoxazole-5-carboxylic acid (3-{(S)-5-[5-chloro-3-fluoro-2-(5-methyl-[1,2,4]oxadiazol-3-yl)-phenyl]-indan-1-ylcarbamoyl}-oxetan-3-yl)-amide] |
| 4.3 | 25.7 | Cc1cc(C(=O)NC2(C(=O)N[C@H]3CCc4cc(-c5cc(Cl)cc(F)c5-c5noc(C)n5)ccc43)COC2)on1 [Example 52, 3-Methyl-isoxazole-5-carboxylic acid (3-{(S)-5-[5-chloro-3-fluoro-2-(5-methyl-[1,2,4]oxadiazol-3-yl)-phenyl]-indan-1-ylcarbamoyl}-oxetan-3-yl)-amide] |
| 0.4 | 3.6 | COc1cc(C(=O)NC2(C(=O)N[C@H]3CCc4cc(-c5cc(Cl)cc(F)c5-c5noc(C)n5)ccc43)COC2)on1 [Example 53, 3-Methoxy-isoxazole-5-carboxylic acid (3-{(S)-5-[5-chloro-3-fluoro-2-(5-methyl-[1,2,4]oxadiazol-3-yl)-phenyl]-indan-1-ylcarbamoyl}-oxetan-3-yl)-amide] |
